Source: ChEMBL document CHEMBL5576135, “Discovery of Indolo[3,2-c]isoquinoline Derivatives as Novel Top1/2 Dual Inhibitors with Orally Efficacious Antitumor Activity and Low Toxicity” (J Med Chem, 2024)
Active and inactive are the calls of the source. The rule behind the calls is not given here.

Experiments:
[1] = tested on: HCT-116; experiment: Antiproliferative activity against human HCT-116 cells assessed as inhibition of cell growth incubated for 96 hrs by MTT based ELISA; type: functional; settings: HCT-116, 96 h
[2] = tested on: Huh-7; experiment: Antiproliferative activity against human Huh-7 cells assessed as inhibition of cell growth incubated for 96 hrs by MTT based ELISA; type: functional; settings: Huh-7, 96 h
[3] = tested on: NCI-H1975; experiment: Antiproliferative activity against human NCI-H1975 cells assessed as inhibition of cell growth incubated for 96 hrs by MTT based ELISA; type: functional; settings: NCI-H1975, 96 h
[4] = tested on: DU-145; experiment: Antiproliferative activity against human DU-145 cells assessed as inhibition of cell growth incubated for 96 hrs by MTT based ELISA; type: functional; settings: DU-145, 96 h
[5] = AUC (0 to infinity) in ICR mouse at 10 mg/kg,po measured upto 24 hrs by LC-MS/MS analysis; type: ADME, organism-based; settings: in vivo
[6] = target: T1, DNA topoisomerase 1 (Homo sapiens) (UniProt P11387); experiment: Inhibition of Topoisomerase I (unknown origin) using pBR322 DNA as substrate at 200 uM incubated for 15 mins by EtBr staining based agarose gel electrophoresis method relative to control
T1 sequence (whole entry): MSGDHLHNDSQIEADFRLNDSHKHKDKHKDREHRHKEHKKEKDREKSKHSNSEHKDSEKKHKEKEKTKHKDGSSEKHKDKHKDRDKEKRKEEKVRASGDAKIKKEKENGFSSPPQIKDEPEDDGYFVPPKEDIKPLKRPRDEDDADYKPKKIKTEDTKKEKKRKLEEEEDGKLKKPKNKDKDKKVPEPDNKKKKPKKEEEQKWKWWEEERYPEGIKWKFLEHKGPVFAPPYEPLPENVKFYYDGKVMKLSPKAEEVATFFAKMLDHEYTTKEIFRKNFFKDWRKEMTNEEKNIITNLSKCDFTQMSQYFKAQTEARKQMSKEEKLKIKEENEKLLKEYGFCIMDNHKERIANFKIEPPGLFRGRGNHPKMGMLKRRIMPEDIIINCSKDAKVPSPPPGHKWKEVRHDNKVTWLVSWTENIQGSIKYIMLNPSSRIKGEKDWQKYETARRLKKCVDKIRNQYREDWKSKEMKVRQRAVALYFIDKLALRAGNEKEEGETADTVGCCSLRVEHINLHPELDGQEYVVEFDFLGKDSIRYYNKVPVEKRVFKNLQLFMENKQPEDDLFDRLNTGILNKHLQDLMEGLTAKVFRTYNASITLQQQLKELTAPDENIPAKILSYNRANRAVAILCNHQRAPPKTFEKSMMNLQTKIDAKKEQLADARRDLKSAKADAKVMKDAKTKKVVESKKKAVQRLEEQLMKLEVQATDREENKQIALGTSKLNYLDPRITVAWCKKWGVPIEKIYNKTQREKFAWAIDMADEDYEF

[7] = target: DNA topoisomerase 2-alpha (Homo sapiens) (UniProt P11388); experiment: Inhibition of Topoisomerase 2 (unknown origin) using pBR322 DNA as substrate at 100 uM incubated for 15 mins by EtBr staining based agarose gel electrophoresis method relative to control
Chain of DNA topoisomerase 2-alpha (Homo sapiens) (P11388 whole entry): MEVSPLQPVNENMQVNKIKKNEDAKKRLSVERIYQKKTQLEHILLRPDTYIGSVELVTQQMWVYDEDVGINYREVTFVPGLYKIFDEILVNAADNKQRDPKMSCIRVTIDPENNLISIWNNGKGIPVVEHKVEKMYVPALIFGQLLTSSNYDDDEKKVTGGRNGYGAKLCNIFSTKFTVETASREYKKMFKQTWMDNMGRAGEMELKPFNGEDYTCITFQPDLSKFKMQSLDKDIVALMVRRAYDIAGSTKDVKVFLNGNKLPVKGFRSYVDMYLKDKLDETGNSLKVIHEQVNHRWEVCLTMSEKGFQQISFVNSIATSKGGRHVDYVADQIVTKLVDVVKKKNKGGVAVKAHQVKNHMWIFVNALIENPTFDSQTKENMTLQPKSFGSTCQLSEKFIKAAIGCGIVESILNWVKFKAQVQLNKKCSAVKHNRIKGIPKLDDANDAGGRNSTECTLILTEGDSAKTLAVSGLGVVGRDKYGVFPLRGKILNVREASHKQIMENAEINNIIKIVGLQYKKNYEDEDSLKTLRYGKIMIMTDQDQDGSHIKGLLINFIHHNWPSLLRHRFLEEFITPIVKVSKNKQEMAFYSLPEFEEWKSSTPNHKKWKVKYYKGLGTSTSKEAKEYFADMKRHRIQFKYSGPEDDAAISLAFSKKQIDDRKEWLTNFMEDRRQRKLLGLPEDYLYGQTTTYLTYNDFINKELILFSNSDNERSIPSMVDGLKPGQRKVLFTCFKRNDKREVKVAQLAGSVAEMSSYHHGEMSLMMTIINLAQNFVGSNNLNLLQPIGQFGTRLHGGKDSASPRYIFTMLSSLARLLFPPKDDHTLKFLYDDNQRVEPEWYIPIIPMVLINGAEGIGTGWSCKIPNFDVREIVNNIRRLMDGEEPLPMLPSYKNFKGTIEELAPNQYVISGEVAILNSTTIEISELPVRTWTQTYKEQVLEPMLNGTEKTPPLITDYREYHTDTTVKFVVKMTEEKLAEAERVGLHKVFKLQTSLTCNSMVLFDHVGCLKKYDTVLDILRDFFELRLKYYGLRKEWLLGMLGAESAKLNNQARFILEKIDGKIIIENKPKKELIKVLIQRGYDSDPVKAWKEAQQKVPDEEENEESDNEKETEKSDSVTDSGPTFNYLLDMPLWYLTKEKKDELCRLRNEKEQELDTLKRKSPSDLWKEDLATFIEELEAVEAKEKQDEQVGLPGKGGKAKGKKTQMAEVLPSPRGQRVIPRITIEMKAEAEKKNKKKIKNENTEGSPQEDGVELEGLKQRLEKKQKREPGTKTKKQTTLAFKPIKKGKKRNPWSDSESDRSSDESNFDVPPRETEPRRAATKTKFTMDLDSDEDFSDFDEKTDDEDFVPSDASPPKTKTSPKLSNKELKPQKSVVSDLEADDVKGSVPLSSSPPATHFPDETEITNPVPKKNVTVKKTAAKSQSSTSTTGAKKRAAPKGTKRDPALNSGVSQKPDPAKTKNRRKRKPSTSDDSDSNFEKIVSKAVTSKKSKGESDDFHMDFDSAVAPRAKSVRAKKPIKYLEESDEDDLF

[8] = tested on: NCI-H446; experiment: Induction of DNA damage in human NCI-H446 cells assessed as tail DNA at 8 uM incubated for 48 hrs by comet assay relative to control; type: functional
[9] = tested on: NCI-H446; experiment: Induction of DNA damage in human NCI-H446 cells assessed as increase in intracellular gamma-H2AX level at 2 to 8 uM incubated for 48 hrs by Western blotting analysis; type: functional, cell-based; settings: dose 2-8 µM
[10] = tested on: NCI-H446; experiment: Induction of DNA damage in human NCI-H446 cells assessed as increase in intracellular ROS level at 4 to 8 uM incubated for 6 hrs by DCFHDA probe based fluorescence microscopic analysis; type: functional, cell-based; settings: dose 4-8 µM
[11] = tested on: NCI-H446; experiment: Induction of cell cycle arrest in human NCI-H446 cells assessed as accumulation of cells at S phase at 1 to 2 uM incubated for 48 hrs by propidium iodide/RNase A staining based flow cytometry; type: functional; settings: dose 1-2 µM
[12] = tested on: NCI-H446; experiment: Induction of cell cycle arrest in human NCI-H446 cells assessed as accumulation of cells at G2/M phase at 1 to 2 uM incubated for 48 hrs by propidium iodide/RNase A staining based flow cytometry; type: functional; settings: dose 1-2 µM
[13] = tested on: NCI-H446; experiment: Induction of cell cycle arrest in human NCI-H446 cells assessed as accumulation of cells at S phase at 2 uM incubated for 48 hrs by propidium iodide/RNase A staining based flow cytometry relative to control; type: functional
[14] = tested on: NCI-H446; experiment: Induction of cell cycle arrest in human NCI-H446 cells assessed as accumulation of cells at G2/M phase at 2 uM incubated for 48 hrs by propidium iodide/RNase A staining based flow cytometry relative to control; type: functional
[15] = tested on: Cell membrane; experiment: Induction of mitochondrial membrane potential loss in human NCI-H446 cells at 8 uM incubated for 24 hrs by JC-1 staining based flow cytometry; type: cell membranes
[16] = tested on: NCI-H446; experiment: Inhibition of colony formation in human NCI-H446 cells at 2 uM incubated for 24 hrs by crystal violet staining based analysis relative to control; type: functional
[17] = tested on: NCI-H446; experiment: Inhibition of cell migration in human NCI-H446 cells at 2 uM incubated for 48 hrs by phase-contrast microscopic analysis relative to control; type: functional
[18] = Toxicity in Kunming mouse assessed as change in serum ALT level at 100 mg/kg,po administration for 2 weeks; type: organism-based; settings: in vivo, 336 h
[19] = Toxicity in Kunming mouse assessed as change in serum blood urea nitrogen level at 100 mg/kg,po administration for 2 weeks; type: organism-based; settings: in vivo, 336 h
[20] = Toxicity in Kunming mouse assessed as morphological change in kidney at 100 mg/kg,po administration for 2 weeks; type: organism-based; settings: in vivo, 336 h
[21] = Toxicity in Kunming mouse assessed as change in organ coefficient of heart at 100 mg/kg,po administration for 2 weeks; type: organism-based; settings: in vivo, 336 h
[22] = tested on: NCI-H446; experiment: Antitumor activity against human NCI-H446 cells xenografted with BALB/c mouse assessed as tumor growth inhibition at 100 mg/kg,po administrated once daily for 21 days relative to control; type: functional; settings: NCI-H446, 504 h, time 21 day, read-out: TGI
[23] = tested on: NCI-H446; experiment: Antitumor activity against human NCI-H446 cells xenografted with BALB/c mouse assessed as tumor growth inhibition by measuring T/C ratio at 50 mg/kg,po administrated once daily for 21 days; type: functional; settings: time 21 day
[24] = tested on: NCI-H446; experiment: Antitumor activity against human NCI-H446 cells xenografted with BALB/c mouse assessed as tumor growth inhibition by measuring T/C ratio at 100 mg/kg,po administrated once daily for 21 days; type: functional; settings: time 21 day
[25] = tested on: HCT-116; experiment: Antitumor activity against human HCT-116 cells xenografted with BALB/c mouse assessed as tumor growth inhibition at 100 mg/kg,po administrated once daily for 21 days relative to control; type: functional; settings: HCT-116, 504 h, time 21 day, read-out: TGI
[26] = tested on: HCT-116; experiment: Antitumor activity against human HCT-116 cells xenografted with BALB/c mouse assessed as tumor growth inhibition by measuring T/C ratio at 50 mg/kg,po administrated once daily for 21 days; type: functional; settings: time 21 day
[27] = target: DNA topoisomerase 2-alpha (Homo sapiens) (UniProt P11388); experiment: Inhibition of Topoisomerase 2 (unknown origin) using pBR322 DNA as substrate at 10 uM incubated for 15 mins by EtBr staining based agarose gel electrophoresis method

Question: Which results are given for `CN(C)CCCn1c2cc3c(cc2c2ncc4ccccc4c21)OCO3`?
Answer: IC50 [1]: 0.21 µM; IC50 [2]: 0.83 µM; IC50 [3]: 0.74 µM; IC50 [4]: 0.52 µM; AUC(0-inf) [5]: 2040 ng·h/mL; inhibition [6]: > 95%; inhibition [7]: > 95%; Activity [8]: 65.4%; Activity [9]: Active; Activity [10]: Active; Activity [11]: Active; Activity [12]: Active; Activity [13]: 61.1%; Activity [14]: 61.1%; Activity [15]: Active; inhibition at 2 µM [16]: > 90%; inhibition at 2 µM [17]: 77.1%; Activity [18]: Non-Toxic; Activity [19]: Non-Toxic; Activity [20]: Non-Toxic; Activity [21]: Non-Toxic; inhibition in vivo at 100 mg/kg [22]: 66.1%; T/C [23]: 52.3%; T/C [24]: 35.2%; inhibition in vivo at 100 mg/kg [25]: 77.4%; T/C [26]: 55%; inhibition [27]: Active

Question: For `COc1ccc2c(c1)c1ncc3ccccc3c1n2CCCC(=O)NO`, which IC50 [1] is on record?
Answer: Its IC50 is 0.53 µM.

Question: What about the IC50 [2] of the same molecule?
Answer: The IC50 was 2.5 µM.

Question: What about the IC50 [3] of the same molecule?
Answer: The IC50 was 0.96 µM.

Question: What about the IC50 [4] of the same molecule?
Answer: Its IC50 is 0.86 µM.

Question: What about the AUC(0-inf) [5] of the same molecule?
Answer: Its AUC(0-inf) is 267 ng·h/mL.

Question: What about the inhibition [6] of the same molecule?
Answer: The inhibition was > 95%.

Question: And the inhibition [7]?
Answer: The inhibition was > 95%.

Question: What about the Activity [8] of the same molecule?
Answer: The Activity was 54.8%.

Question: And the Activity [9]?
Answer: Its Activity is “Active”.

Question: And the Activity [10]?
Answer: The Activity was “Active”.

Question: And the Activity [11]?
Answer: Its Activity is “Active”.

Question: What about the Activity [12] of the same molecule?
Answer: Its Activity is “Active”.

Question: What about the Activity [13] of the same molecule?
Answer: Its Activity is 60.3%.

Question: What about the Activity [14] of the same molecule?
Answer: The Activity was 60.3%.

Question: What about the Activity [15] of the same molecule?
Answer: Its Activity is “Active”.

Question: What about the inhibition at 2 µM [16] of the same molecule?
Answer: The inhibition at 2 µM was > 90%.

Question: What about the inhibition at 2 µM [17] of the same molecule?
Answer: The inhibition at 2 µM was 73.2%.

Question: And the Activity [18]?
Answer: The Activity was “Non-Toxic”.

Question: And the Activity [19]?
Answer: The Activity was “Non-Toxic”.

Question: What about the Activity [20] of the same molecule?
Answer: Its Activity is “Non-Toxic”.

Question: And the Activity [21]?
Answer: Its Activity is “Non-Toxic”.

Question: What about the inhibition [27] of the same molecule?
Answer: Its inhibition is “Active”.
